Test results from PMC6510361 (Medicine and Pharmacy Reports, 2019).

Legend:
[1] = cited from earlier work
CYP2D6 = conditions: sertraline, fluvoxamine: ref 17; bupropion in vitro ref 12, in vivo ref 13; cited from earlier work
[2] = tested on: rat pooled liver microsomes
CYP1A2 = conditions: cited from earlier work
CYP2C9 = conditions: cited from earlier work

SMILES | beta-blocking potency relative to carvedilol [1] | CYP2D6 inhibition (CYP2D6) | decrease of carvedilol metabolisation rate [2] [%] | inhibitory potency compared with citalopram ([2]; based on metabolization rate and AUC0–30, citalopram data ref 20) | CYP1A2 inhibition (CYP1A2) | CYP2C9 inhibition (CYP2C9)
COc1cc(O)ccc1OCCNCC(O)COc1cccc2[nH]c3ccccc3c12 (centres unmarked) [4′-hydroxyphenyl carvedilol] | approximately 13 times | – | – | – | – | –
CC(NC(C)(C)C)C(=O)c1cccc(Cl)c1 (centres unmarked) [Bupropion, bupropion] | – | inhibits | – | – | – | –
COCCCC/C(=N\OCCN)c1ccc(C(F)(F)F)cc1 [Fluvoxamine, fluvoxamine] | – | weak inhibitor | 25.19 | stronger inhibitors than citalopram | strong inhibitor | moderate inhibitor
CN[C@H]1CC[C@@H](c2ccc(Cl)c(Cl)c2)c2ccccc21 [Sertraline, sertraline] | – | moderate inhibitor | 63.63 | – | weak inhibitor | weak inhibitor
